Measurements as given in ChEMBL document CHEMBL4308841, “Synthesis, in vitro antiproliferative activity, and kinase inhibitory effects of pyrazole-containing diarylureas and diarylamides” (Eur J Med Chem, 2018).

System: KM12
Test: Growth inhibition of human KM12 cells assessed as cell growth at 10 uM incubated for 48 hrs by sulforhodamine B assay relative to control
Format: functional
Settings: KM12, 48 h, read-out: Activity

| Structure (SMILES) | growth at 10 µM [%] |
| --- | --- |
| O=C(Nc1cccc(-n2cc(-c3ccncc3)c(-c3cc(O)cc(Cl)c3)n2)c1)Nc1ccc(Cl)c(Cl)c1 | 2.26 |

System: OVCAR-8
Test: Growth inhibition of human OVCAR8 cells assessed as cell growth at 10 uM incubated for 48 hrs by sulforhodamine B assay relative to control
Format: functional
Settings: OVCAR-8, 48 h, read-out: Activity

| Structure (SMILES) | growth at 10 µM [%] |
| --- | --- |
| O=C(Nc1cccc(-n2cc(-c3ccncc3)c(-c3cc(O)cc(Cl)c3)n2)c1)Nc1ccc(Cl)c(Cl)c1 | -14.8 |

System: SK-MEL-28
Test: Growth inhibition of human SK-MEL-28 cells assessed as cell growth at 10 uM incubated for 48 hrs by sulforhodamine B assay relative to control
Format: functional
Settings: SK-MEL-28, 48 h, read-out: Activity

| Structure (SMILES) | growth at 10 µM [%] |
| --- | --- |
| O=C(Nc1cccc(-n2cc(-c3ccncc3)c(-c3cc(O)cc(Cl)c3)n2)c1)Nc1ccc(Cl)c(Cl)c1 | -50.9 |

System: NCI-H23
Test: Growth inhibition of human NCI-H23 cells assessed as cell growth at 10 uM incubated for 48 hrs by sulforhodamine B assay relative to control
Format: functional
Settings: NCI-H23, 48 h, read-out: Activity

| Structure (SMILES) | growth at 10 µM [%] |
| --- | --- |
| O=C(Nc1cccc(-n2cc(-c3ccncc3)c(-c3cc(O)cc(Cl)c3)n2)c1)Nc1ccc(Cl)c(Cl)c1 | -20.4 |

System: RPMI-8226
Test: Growth inhibition of human RPMI8226 cells assessed as cell growth at 10 uM incubated for 48 hrs by sulforhodamine B assay relative to control
Format: functional
Settings: RPMI-8226, 48 h, read-out: Activity

| Structure (SMILES) | growth at 10 µM [%] |
| --- | --- |
| O=C(Nc1cccc(-n2cc(-c3ccncc3)c(-c3cc(O)cc(Cl)c3)n2)c1)Nc1ccc(Cl)c(Cl)c1 | -15.3 |

System: CCRF-CEM
Test: Growth inhibition of human CCRF-CEM cells assessed as cell growth at 10 uM incubated for 48 hrs by sulforhodamine B assay relative to control
Format: functional
Settings: read-out: Activity

| Structure (SMILES) | growth at 10 µM [%] |
| --- | --- |
| O=C(Nc1cccc(-n2cc(-c3ccncc3)c(-c3cc(O)cc(Cl)c3)n2)c1)Nc1ccc(Cl)c(Cl)c1 | 4.11 |

System: HCT-15
Test: Growth inhibition of human HCT15 cells assessed as cell growth at 10 uM incubated for 48 hrs by sulforhodamine B assay relative to control
Format: functional
Settings: HCT-15, 48 h, read-out: Activity

| Structure (SMILES) | growth at 10 µM [%] |
| --- | --- |
| O=C(Nc1cccc(-n2cc(-c3ccncc3)c(-c3cc(O)cc(Cl)c3)n2)c1)Nc1ccc(Cl)c(Cl)c1 | -25.3 |

System: MCF7
Test: Growth inhibition of human MCF7 cells assessed as cell growth at 10 uM incubated for 48 hrs by sulforhodamine B assay relative to control
Format: functional
Settings: MCF7, 48 h, read-out: Activity

| Structure (SMILES) | growth at 10 µM [%] |
| --- | --- |
| O=C(Nc1cccc(-n2cc(-c3ccncc3)c(-c3cc(O)cc(Cl)c3)n2)c1)Nc1ccc(Cl)c(Cl)c1 | 2.74 |

System: A498
Test: Growth inhibition of human A498 cells assessed as cell growth at 10 uM incubated for 48 hrs by sulforhodamine B assay relative to control
Format: functional
Settings: A498, 48 h, read-out: Activity

| Structure (SMILES) | growth at 10 µM [%] |
| --- | --- |
| O=C(Nc1cccc(-n2cc(-c3ccncc3)c(-c3cc(O)cc(Cl)c3)n2)c1)Nc1ccc(Cl)c(Cl)c1 | -2.98 |

System: SR
Test: Growth inhibition of human SR cells assessed as cell growth at 10 uM incubated for 48 hrs by sulforhodamine B assay relative to control
Format: functional
Settings: read-out: Activity

| Structure (SMILES) | growth at 10 µM [%] |
| --- | --- |
| O=C(Nc1cccc(-n2cc(-c3ccncc3)c(-c3cc(O)cc(Cl)c3)n2)c1)Nc1ccc(Cl)c(Cl)c1 | -21.4 |

System: HCC 2998
Test: Growth inhibition of human HCC2998 cells assessed as cell growth at 10 uM incubated for 48 hrs by sulforhodamine B assay relative to control
Format: functional
Settings: HCC 2998, 48 h, read-out: Activity

| Structure (SMILES) | growth at 10 µM [%] |
| --- | --- |
| O=C(Nc1cccc(-n2cc(-c3ccncc3)c(-c3cc(O)cc(Cl)c3)n2)c1)Nc1ccc(Cl)c(Cl)c1 | 0.57 |

System: BT-549
Test: Growth inhibition of human BT549 cells assessed as cell growth at 10 uM incubated for 48 hrs by sulforhodamine B assay relative to control
Format: functional
Settings: BT-549, 48 h, read-out: Activity

| Structure (SMILES) | growth at 10 µM [%] |
| --- | --- |
| O=C(Nc1cccc(-n2cc(-c3ccncc3)c(-c3cc(O)cc(Cl)c3)n2)c1)Nc1ccc(Cl)c(Cl)c1 | 0.54 |

System: OVCAR-5
Test: Growth inhibition of human OVCAR5 cells assessed as cell growth at 10 uM incubated for 48 hrs by sulforhodamine B assay relative to control
Format: functional
Settings: OVCAR-5, 48 h, read-out: Activity

| Structure (SMILES) | growth at 10 µM [%] |
| --- | --- |
| O=C(Nc1cccc(-n2cc(-c3ccncc3)c(-c3cc(O)cc(Cl)c3)n2)c1)Nc1ccc(Cl)c(Cl)c1 | -2.26 |

System: SF-268
Test: Growth inhibition of human SF268 cells assessed as cell growth at 10 uM incubated for 48 hrs by sulforhodamine B assay relative to control
Format: functional
Settings: SF-268, 48 h, read-out: Activity

| Structure (SMILES) | growth at 10 µM [%] |
| --- | --- |
| O=C(Nc1cccc(-n2cc(-c3ccncc3)c(-c3cc(O)cc(Cl)c3)n2)c1)Nc1ccc(Cl)c(Cl)c1 | 16.2 |

System: SNB-19
Test: Growth inhibition of human SNB19 cells assessed as cell growth at 10 uM incubated for 48 hrs by sulforhodamine B assay relative to control
Format: functional
Settings: SNB-19, 48 h, read-out: Activity

| Structure (SMILES) | growth at 10 µM [%] |
| --- | --- |
| O=C(Nc1cccc(-n2cc(-c3ccncc3)c(-c3cc(O)cc(Cl)c3)n2)c1)Nc1ccc(Cl)c(Cl)c1 | 30.8 |

System: NCI-H322M
Test: Growth inhibition of human NCI-H322M cells assessed as cell growth at 10 uM incubated for 48 hrs by sulforhodamine B assay relative to control
Format: functional
Settings: read-out: Activity

| Structure (SMILES) | growth at 10 µM [%] |
| --- | --- |
| O=C(Nc1cccc(-n2cc(-c3ccncc3)c(-c3cc(O)cc(Cl)c3)n2)c1)Nc1ccc(Cl)c(Cl)c1 | 19.5 |
